According to patent publication US20210221866A1, “PROTEASE-RESISTANT LIPIDATED GLP-1 ANALOGS” (MEDIMMUNE LIMITED, priority 2015, published 2021):
Read-outs that look alike come from different tables or passages of the source. Numbered stars: 1 amine (or outer) side, 2 acyl side, 3 side chain; on linkers, the order of the positions; unused ones are H or OH. Square brackets hold non-standard residues; d marks the D form. Side chains are listed from the residue outwards. Peptide text beside a SMILES is read from it. * marks the point of attachment. C18 diacid = O=C(O)CCCCCCCCCCCCCCCCC(=O)*; γGlu = O=C(O)[C@H](CCC(=O)[*:2])N[*:1]; Palmitoyl = CCCCCCCCCCCCCCCC(=O)*; αMeF = C[C@](N)(Cc1ccccc1)C(=O)O; αMeK = C[C@](N)(CCCCN)C(=O)O; Lauroyl = CCCCCCCCCCCC(=O)*; αMeS = C[C@](N)(CO)C(=O)O; AEEA = NCCOCCOCC(=O)O; Aib = CC(C)(N)C(=O)O

Biological target: T1, human GLP-1 receptor (GLP-1R) (Homo sapiens, UniProt P43220)
T1 construct: expressed in transfected cells; host or cells: HEK293 cells or CHO cells
T1 sequence (P43220 24-463): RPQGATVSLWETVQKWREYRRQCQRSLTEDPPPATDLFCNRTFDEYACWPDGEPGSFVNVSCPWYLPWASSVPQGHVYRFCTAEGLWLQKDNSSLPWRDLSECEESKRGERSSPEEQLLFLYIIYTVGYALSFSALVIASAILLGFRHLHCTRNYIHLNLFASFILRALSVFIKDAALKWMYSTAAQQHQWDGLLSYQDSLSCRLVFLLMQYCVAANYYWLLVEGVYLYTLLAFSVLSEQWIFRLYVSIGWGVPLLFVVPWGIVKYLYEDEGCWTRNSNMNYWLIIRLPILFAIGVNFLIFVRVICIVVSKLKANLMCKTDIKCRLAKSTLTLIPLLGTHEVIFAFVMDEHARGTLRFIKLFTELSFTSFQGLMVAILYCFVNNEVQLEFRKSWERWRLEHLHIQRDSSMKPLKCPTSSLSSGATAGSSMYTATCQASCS
Test: cAMP assay, human GLP-1R cells
Format: cell-based
Protocol: Sample dilutions are made in duplicate.
A frozen cryo-vial of cells expressing the receptor of interest is thawed rapidly in a water-bath, transferred to pre-warmed assay buffer and spun at 240×g for 5 minutes. Cells are re-suspended in assay buffer at a batch-dependent optimized concentration (e.g. hGCGR cells at 2×10^5 cells/ml, hGLP-1R and hGIPR cells at 1×10^5 cells/ml).
To this, 5 μL cell suspension is added and the plates incubated at room temperature for 30 minutes.
cAMP levels are measured using a commercially available cAMP dynamic 2 HTRF kit (Cisbio, Cat #62AM4PEJ), following the two step protocol as per manufacturer's recommendations. In brief; anti-cAMP cryptate (donor fluorophore) and cAMP-d2 (acceptor fluorophore) are made up separately by diluting each 1/20 in conjugate & lysis buffer provided in the kit. 5 μL anti-cAMP cryptate is added to wells of the assay plate, and 5 μL cAMP-d2 is added to wells except non-specific binding (NSB) wells, to which conjugate and lysis buffer are added. […] EC50 values of the synthetic peptides determined in cAMP assays are then determined.
Data is transformed to % Delta F as described in the manufacturer's guidelines and analyzed by 4-parameter logistic fit to determine EC50 values. […] To compare the balance of activities at the GLP-1R and GCGR between different peptides and across different conditions, these can be correlated, where the EC50's are related to those of comparator peptides.

[1] = cAMP activity, mean of n1 and n2, read-out: Mean pM GLP-1R

| Compound | EC50 [1] | EC50 (cAMP activity, second determination (n2), read-out: Primary assay EC50 GLP-1R n2) | EC50 (Table 11, tris-lipidated peptides, mean of n1 and n2, read-out: Primary assay EC50 Mean pM GLP-1R) |
| --- | --- | --- | --- |
| CC[C@H](C)[C@H](NC(=O)[C@H](Cc1ccccc1)NC(=O)[C@H](CCC(=O)O)NC(=O)[C@H](CCCCN)NC(=O)[C@H](C)NC(=O)[C@H](C)NC(=O)[C@H](CCC(N)=O)NC(=O)CNC(=O)[C@H](CCC(=O)O)NC(=O)[C@H](CC(C)C)NC(=O)[C@H](Cc1ccc(O)cc1)NC(=O)[C@H](CO)NC(=O)C(C)(C)NC(=O)[C@@H](NC(=O)[C@H](CC(=O)O)NC(=O)[C@H](CO)NC(=O)[C@@H](NC(=O)[C@H](Cc1ccccc1)NC(=O)[C@@H](NC(=O)CNC(=O)[C@H](CCC(=O)O)NC(=O)C(C)(C)NC(=O)[C@@H](N)Cc1c[nH]cn1)[C@@H](C)O)[C@@H](C)O)C(C)C)C(=O)N[C@@H](C)C(=O)N[C@@H](Cc1c[nH]c2ccccc12)C(=O)N[C@@H](CC(C)C)C(=O)N[C@H](C(=O)N[C@@H](CCCCN)C(=O)NCC(=O)N[C@@H](CCCNC(=N)N)C(N)=O)C(C)C [compound 22] (H-H[Aib]EGTFTSDV[Aib]SYLEGQAAKEFIAWLVKGR-NH2; N-terminus assumed) | 118 pM |  |  |
| CCCCCCCCCCCC(=O)N[C@@H](CCC(=O)NCCOCCOCC(=O)NCCOCCOCC(=O)NCCCC[C@H](NC(=O)CNC(=O)[C@H](CCC(=O)O)NC(=O)[C@H](CC(C)C)NC(=O)[C@H](Cc1ccc(O)cc1)NC(=O)[C@H](CO)NC(=O)[C@H](CO)NC(=O)[C@H](CCCCNC(=O)COCCOCCNC(=O)COCCOCCNC(=O)CC[C@H](NC(=O)CCCCCCCCCCC)C(=O)O)NC(=O)[C@H](CC(=O)O)NC(=O)[C@H](CO)NC(=O)[C@@H](NC(=O)[C@](C)(Cc1ccccc1)NC(=O)[C@H](CO)NC(=O)CNC(=O)[C@H](CCC(=O)O)NC(=O)C(C)(C)NC(=O)[C@@H](N)Cc1c[nH]cn1)[C@@H](C)O)C(=O)N[C@@H](C)C(=O)N[C@@H](C)C(=O)N[C@@](C)(CCCCN)C(=O)N[C@@H](CCC(=O)O)C(=O)N[C@@H](Cc1ccccc1)C(=O)N[C@H](C(=O)N[C@@H](C)C(=O)N[C@@H](Cc1ccccc1)C(=O)N[C@@H](CCCCNC(=O)COCCOCCNC(=O)COCCOCCNC(=O)CC[C@H](NC(=O)CCCCCCCCCCC)C(=O)O)C(=O)N[C@H](C(=O)N[C@@H](CCC(=O)O)C(=O)NCC(=O)NCC(N)=O)C(C)C)[C@@H](C)CC)C(=O)O [compound 472] (H-H[Aib]EGS[αMeF]TSDK([AEEA-AEEA-γGlu-Lauroyl])SSYLEGK([AEEA-AEEA-γGlu-Lauroyl])AA[αMeK]EFIAFK([AEEA-AEEA-γGlu-Lauroyl])VEGG-NH2; N-terminus assumed) |  |  | 287 pM |
| CC[C@H](C)[C@H](NC(=O)[C@](C)(Cc1ccccc1)NC(=O)[C@H](CCC(=O)O)NC(=O)[C@](C)(CCCCN)NC(=O)[C@H](C)NC(=O)[C@H](C)NC(=O)[C@H](CCC(=O)O)NC(=O)CNC(=O)[C@H](CCC(=O)O)NC(=O)[C@H](CC(C)C)NC(=O)[C@](C)(Cc1ccccc1)NC(=O)[C@H](CO)NC(=O)[C@](C)(CO)NC(=O)[C@@H](NC(=O)[C@H](CC(=O)O)NC(=O)[C@@H](NC(=O)[C@@H](NC(=O)[C@](C)(Cc1ccccc1)NC(=O)[C@H](CO)NC(=O)CNC(=O)[C@H](CCC(=O)O)NC(=O)C(C)(C)NC(=O)[C@@H](N)Cc1c[nH]cn1)[C@@H](C)O)[C@@H](C)O)C(C)C)C(=O)N[C@@H](C)C(=O)N[C@@](C)(Cc1ccccc1)C(=O)N[C@H](C(=O)N[C@H](C(=O)N[C@@](C)(CCCCN)C(=O)NCC(=O)NCC(N)=O)C(C)C)C(C)C [compound 29] (H-H[Aib]EGS[αMeF]TTDV[αMeS]S[αMeF]LEGEAA[αMeK]E[αMeF]IA[αMeF]VV[αMeK]GG-NH2) | 801 pM |  |  |
| CCCCCCCCCCCCCCCC(=O)N[C@@H](CCC(=O)NCCCC[C@H](NC(=O)[C@](C)(Cc1ccccc1)NC(=O)[C@H](CCC(=O)O)NC(=O)[C@](C)(CCCCN)NC(=O)[C@H](C)NC(=O)[C@H](C)NC(=O)[C@H](CCC(=O)O)NC(=O)CNC(=O)[C@H](CCC(=O)O)NC(=O)[C@H](CC(C)C)NC(=O)[C@](C)(Cc1ccccc1)NC(=O)[C@H](CO)NC(=O)[C@](C)(CO)NC(=O)[C@@H](NC(=O)[C@H](CC(=O)O)NC(=O)[C@H](CO)NC(=O)[C@@H](NC(=O)[C@](C)(Cc1ccccc1)NC(=O)[C@H](CO)NC(=O)CNC(=O)[C@H](CCC(=O)O)NC(=O)C(C)(C)NC(=O)[C@@H](N)Cc1c[nH]cn1)[C@@H](C)O)C(C)C)C(=O)N[C@@H](C)C(=O)N[C@@](C)(Cc1ccccc1)C(=O)N[C@H](C(=O)N[C@H](C(=O)N[C@@](C)(CCCCN)C(=O)NCC(=O)NCC(N)=O)C(C)C)C(C)C)C(=O)O [compound 77] (H-H[Aib]EGS[αMeF]TSDV[αMeS]S[αMeF]LEGEAA[αMeK]E[αMeF]K([γGlu-Palmitoyl])A[αMeF]VV[αMeK]GG-NH2; N-terminus assumed) | 1860 pM |  |  |
| CC[C@H](C)[C@H](NC(=O)[C@](C)(Cc1ccccc1)NC(=O)[C@H](CCC(=O)O)NC(=O)[C@](C)(CCCCN)NC(=O)[C@H](C)NC(=O)[C@H](C)NC(=O)[C@H](CCC(=O)O)NC(=O)CNC(=O)[C@H](CCC(=O)O)NC(=O)[C@@H](NC(=O)[C@](C)(Cc1ccccc1)NC(=O)[C@H](CO)NC(=O)[C@H](CO)NC(=O)[C@@H](NC(=O)[C@H](CC(=O)O)NC(=O)[C@H](CO)NC(=O)[C@@H](NC(=O)[C@](C)(Cc1ccccc1)NC(=O)[C@H](CO)NC(=O)CNC(=O)[C@H](CCC(=O)O)NC(=O)C(C)(C)NC(=O)[C@@H](N)Cc1c[nH]cn1)[C@@H](C)O)C(C)C)C(C)C)C(=O)N[C@@H](C)C(=O)N[C@@](C)(Cc1ccccc1)C(=O)N[C@H](C(=O)N[C@H](C(=O)N[C@@](C)(CCCCN)C(=O)NCC(=O)NCC(N)=O)C(C)C)C(C)C [compound 10] (H-H[Aib]EGS[αMeF]TSDVSS[αMeF]VEGEAA[αMeK]E[αMeF]IA[αMeF]VV[αMeK]GG-NH2) | 90 pM |  |  |

Second part, the compound after the results:

| EC50 [1] | EC50 (cAMP activity, second determination (n2), read-out: Primary assay EC50 GLP-1R n2) | EC50 (Table 11, tris-lipidated peptides, mean of n1 and n2, read-out: Primary assay EC50 Mean pM GLP-1R) | Compound |
| --- | --- | --- | --- |
| 9 pM | 9.12 pM |  | CC[C@H](C)[C@H](NC(=O)[C@](C)(Cc1ccccc1)NC(=O)[C@H](CCC(=O)O)NC(=O)[C@](C)(CCCCN)NC(=O)[C@H](C)NC(=O)[C@H](C)NC(=O)[C@H](CCC(=O)O)NC(=O)CNC(=O)[C@H](CCC(=O)O)NC(=O)[C@H](CC(C)C)NC(=O)[C@H](CCCCNC(=O)COCCOCCNC(=O)COCCOCCNC(=O)CC[C@H](NC(=O)CCCCCCCCCCCCCCCCC(=O)O)C(=O)O)NC(=O)[C@H](CO)NC(=O)[C@](C)(CO)NC(=O)[C@@H](NC(=O)[C@H](CC(=O)O)NC(=O)[C@H](CO)NC(=O)[C@@H](NC(=O)[C@](C)(Cc1ccccc1)NC(=O)[C@H](CO)NC(=O)CNC(=O)[C@H](CCC(=O)O)NC(=O)C(C)(C)NC(=O)[C@@H](N)Cc1c[nH]cn1)[C@@H](C)O)C(C)C)C(=O)N[C@@H](C)C(=O)N[C@@](C)(Cc1ccccc1)C(=O)N[C@H](C(=O)N[C@H](C(=O)N[C@@](C)(CCCCN)C(=O)NCC(=O)NCC(N)=O)C(C)C)C(C)C [compound 116] |
| 2.1 pM |  |  | CCCCCCCCCCCCCCCC(=O)N[C@@H](CCC(=O)NCCCC[C@H](NC(=O)[C@](C)(Cc1ccccc1)NC(=O)[C@H](C)NC(=O)[C@@H](NC(=O)[C@](C)(Cc1ccccc1)NC(=O)[C@H](CCC(=O)O)NC(=O)[C@](C)(CCCCN)NC(=O)[C@H](C)NC(=O)[C@H](C)NC(=O)[C@H](CCC(=O)O)NC(=O)CNC(=O)[C@H](CCC(=O)O)NC(=O)[C@H](CC(C)C)NC(=O)[C@](C)(Cc1ccccc1)NC(=O)[C@H](CO)NC(=O)[C@](C)(CO)NC(=O)[C@@H](NC(=O)[C@H](CC(=O)O)NC(=O)[C@H](CO)NC(=O)[C@@H](NC(=O)[C@](C)(Cc1ccccc1)NC(=O)[C@H](CO)NC(=O)CNC(=O)[C@H](CCC(=O)O)NC(=O)C(C)(C)NC(=O)[C@@H](N)Cc1c[nH]cn1)[C@@H](C)O)C(C)C)[C@@H](C)CC)C(=O)N[C@H](C(=O)N[C@@](C)(CCCCN)C(=O)NCC(=O)NCC(N)=O)C(C)C)C(=O)O [compound 74] (H-H[Aib]EGS[αMeF]TSDV[αMeS]S[αMeF]LEGEAA[αMeK]E[αMeF]IA[αMeF]K([γGlu-Palmitoyl])V[αMeK]GG-NH2; N-terminus assumed) |
| 15 pM |  |  | CC[C@H](C)[C@H](NC(=O)[C@](C)(Cc1ccccc1)NC(=O)[C@H](CCC(=O)O)NC(=O)[C@](C)(CCCCN)NC(=O)[C@H](C)NC(=O)[C@H](C)NC(=O)[C@H](CCC(=O)O)NC(=O)CNC(=O)[C@H](CCC(=O)O)NC(=O)[C@H](CC(C)C)NC(=O)[C@](C)(Cc1ccccc1)NC(=O)[C@H](CO)NC(=O)[C@](C)(CO)NC(=O)[C@@H](NC(=O)[C@H](CC(=O)O)NC(=O)[C@H](CO)NC(=O)[C@@H](NC(=O)[C@](C)(Cc1ccccc1)NC(=O)[C@H](CO)NC(=O)CNC(=O)[C@H](CCC(=O)O)NC(=O)C(C)(C)NC(=O)[C@@H](N)Cc1c[nH]cn1)[C@@H](C)O)C(C)C)C(=O)N[C@@H](C)C(=O)N[C@@](C)(Cc1ccccc1)C(=O)N[C@H](C(=O)N[C@H](C(=O)N[C@@](C)(CCCCN)C(=O)N[C@@H](CCCCNC(=O)COCCOCCNC(=O)COCCOCCNC(=O)CC[C@H](NC(=O)CCCCCCCCCCCCCCCCC(=O)O)C(=O)O)C(=O)NCC(N)=O)C(C)C)C(C)C [compound 100] (H-H[Aib]EGS[αMeF]TSDV[αMeS]S[αMeF]LEGEAA[αMeK]E[αMeF]IA[αMeF]VV[αMeK]K([AEEA-AEEA-γGlu-C18 diacid])G-NH2; N-terminus assumed) |
